In brackets after ≈: the same amount, converted by molar mass.
Columns and labels:
L1210 = test: Cytotoxicity against L1210 cells; type: functional; settings: Mus musculus, read-out: ED50 (the source's name)
[1] = Concentration formed during 5 min incubation of quinone (1 mM) with GSH (5 mM)

Structure (SMILES) | Concentration [1] | EC50 (L1210)
CCCCCC(O)c1cc(OC)c2c(c1OC)C(=O)C=CC2=O (stereo not given) | 0.28 mM | 0.066 µg/mL (≈ 0.207 µM)
COc1cc(C(C)O)c(OC)c2c1C(=O)C=CC2=O (stereo not given) | 0.304 mM | 0.132 µg/mL (≈ 0.503 µM)
CCCCCCCC(O)C1=CC(=O)c2c(OC)ccc(OC)c2C1=O (stereo not given) | 0.06 mM | 1.04 µg/mL (≈ 3.01 µM)
CCCCCCCC(O)c1cc(OC)c2c(c1OC)C(=O)C=CC2=O (stereo not given) | 0.137 mM | 0.274 µg/mL (≈ 0.791 µM)
CCC(O)c1cc(OC)c2c(c1OC)C(=O)C=CC2=O (stereo not given) | 0.295 mM | 0.085 µg/mL (≈ 0.308 µM)
CCCCCCC(O)c1cc(OC)c2c(c1OC)C(=O)C=CC2=O (stereo not given) | 0.182 mM | 0.22 µg/mL (≈ 0.662 µM)
CCCC(O)c1cc(OC)c2c(c1OC)C(=O)C=CC2=O (stereo not given) | – | 0.043 µg/mL (≈ 0.148 µM)
CCCCC(O)c1cc(OC)c2c(c1OC)C(=O)C=CC2=O (stereo not given) | – | 0.057 µg/mL (≈ 0.187 µM)
COc1cc(CO)c(OC)c2c1C(=O)C=CC2=O | 0.314 mM | 0.062 µg/mL (≈ 0.25 µM)
CCCCCCC(O)C1=CC(=O)c2c(OC)ccc(OC)c2C1=O (stereo not given) | 0.072 mM | 0.732 µg/mL (≈ 2.2 µM)
CCCCCC(O)C1=CC(=O)c2c(OC)ccc(OC)c2C1=O (stereo not given) | 0.124 mM | 0.378 µg/mL (≈ 1.19 µM)

Second part, led by results:

Concentration [1] | Structure (SMILES) | EC50 (L1210)
0.116 mM | CCCC(O)C1=CC(=O)c2c(OC)ccc(OC)c2C1=O (stereo not given) | 0.409 µg/mL (≈ 1.41 µM)
0.131 mM | CCCCC(O)C1=CC(=O)c2c(OC)ccc(OC)c2C1=O (stereo not given) | 0.412 µg/mL (≈ 1.35 µM)
0.084 mM | CCC(O)C1=CC(=O)c2c(OC)ccc(OC)c2C1=O (stereo not given) | 0.516 µg/mL (≈ 1.87 µM)
0.125 mM | COc1ccc(OC)c2c1C(=O)C=C(C(C)O)C2=O (stereo not given) | 0.487 µg/mL (≈ 1.86 µM)
0.13 mM | COc1ccc(OC)c2c1C(=O)C=C(CO)C2=O | 0.524 µg/mL (≈ 2.11 µM)

Reference: ChEMBL document CHEMBL1131845, “Naphthazarin derivatives (II): formation of glutathione conjugate, inhibition of DNA topoisomerase-I and cytotoxicity” (Bioorg Med Chem Lett, 1999)
